Laboratory results published in US20210186834A1, “TAHITI VANILLA EXTRACT AND 4-[(1E,3S)-3-ETHENYL-3,7-DIMETHYLOCTA-1,6-DIENYL]PHENOL FOR COMBATTING CUTANEOUS AGEING” (PIERRE FABRE DERMO-COSMETIQUE, priority 2018, published 2021).

Experiments:
Assay type in all cases: cell-based
normal human fibroblasts = assay: Morphological changes of fibroblasts induced by exposure to UVA; conditions: bakuchiol 0.5 μg/ml, vanilla extract 0.05% (p/v), combination at the same concentrations; UVA 60 J/cm^2
Method: (§1) The fibroblasts are cultured in a standard culture medium for 36 hours, the products to test (vehicle (DMSO), bakuchiol (0.5 μg/ml), vanilla extract (0.05%, p/v) and the combination thereof (same concentrations)) are added to the culture medium one hour before the UVA radiation test. This test consists in a photo-ageing stress: the fibroblasts are irradiated by UVA at a dose of 60 J/cm^2 (Waldmann UVA lamp). A condition without irradiation is also realised. The fibroblasts are next sampled 24 h after irradiation for immunofluorescence analyses. All the experimental conditions are realised with N=3 donors. The fluorescence was quantified using Nikon NIS Element software in order to obtain an average fluorescence per cell and per condition. The protocol used is rigorously the same as that described in example 1. The products tested are the same, the concentrations also. The expression of IL8 is then quantified by immunofluorescence. The treatment of human fibroblasts with acute UVA stress induces a significant increase in the expression of IL8, going from 100% to 5300% (P<0.05) compared to the condition without irradiation. In addition, it appears that the treatment by UVA induces important morphological changes in the fibroblasts, going from a star-shaped model to a spindle-shaped model.

IL8 = assay: Expression of IL8 by immunofluorescence after acute UVA stress on normal human fibroblasts; conditions: bakuchiol 0.5 μg/ml, UVA 60 J/cm^2, 24 h after irradiation; P<0.05 versus non-treated conditions
Method: as §1

protein P16 = assay: Expression of P16 by immunofluorescence after acute UVA stress on normal human fibroblasts; conditions: bakuchiol 0.5 μg/mL, added 1 h before UVA 60 J/cm^2, sampled 24 h after irradiation, N=3 donors; P=NS versus the non-treated group
Method: The biological model used for this study consists of normal human dermis fibroblasts obtained from healthy donors. The fibroblasts are cultured in a standard culture medium for 36 hours, the products to test (vehicle (DMSO), bakuchiol (0.5 μg/ml), vanilla extract (0.05%, p/v) and the combination thereof (same concentrations)) are added to the culture medium one hour before the UVA radiation test. This test consists in a photo-ageing stress: the fibroblasts are irradiated by UVA at a dose of 60 J/cm^2 (Waldmann UVA lamp). A condition without irradiation is also realised. The fibroblasts are next sampled 24 h after irradiation for immunofluorescence analyses. All the experimental conditions are realised with N=3 donors. The fluorescence was quantified using Nikon NIS Element software in order to obtain an average fluorescence per cell and per condition. The treatment of human fibroblasts with acute UVA stress induces a significant increase in the expression of P16, going from 500 AU to almost 1000 AU, P<0.001, versus the non-stimulated condition. […] The statistics are produced using a one way variance analysis (one-way ANOVA) followed by a Dunnett test.

SMILES: C=C[C@@](C)(/C=C/c1ccc(O)cc1)CCC=C(C)C [bakuchiol, 4-[(1E,3S)-3-ethenyl-3,7-dimethylocta-1,6-dienyl]phenol]
- effect on morphological changes (star-shaped to spindle-shaped) induced by exposure to UVA (normal human fibroblasts): prevention of the morphological changes
- decrease of the expression of IL8 following exposure to UVA (IL8): 88.3%
- reduction of the expression of P16 following irradiation (protein P16): −44.4%
